Test results taken from ChEMBL document CHEMBL5252531, “2015 Philip S. Portoghese Medicinal Chemistry Lectureship. Curing Hepatitis C Virus Infection with Direct-Acting Antiviral Agents: The Arc of a Medicinal Chemistry Triumph” (J Med Chem, 2016).

How the values were obtained:
[1] = Oral bioavailability in rat plasma; type: ADME, organism-based; details: in vivo
[2] = target: T1, Hepatitis C virus serine protease, NS3/NS4A (Hepatitis C virus, UniProt A3EZI9+D2K2A8); assay: Inhibition of C-terminal HCV NS4A-NS3 protease; type: protein-complex assay, Hepacivirus hominis
T1 sequence (D2K2A8 whole entry): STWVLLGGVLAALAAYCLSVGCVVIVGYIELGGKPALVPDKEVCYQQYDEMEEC
T1 sequence (A3EZI9 whole entry): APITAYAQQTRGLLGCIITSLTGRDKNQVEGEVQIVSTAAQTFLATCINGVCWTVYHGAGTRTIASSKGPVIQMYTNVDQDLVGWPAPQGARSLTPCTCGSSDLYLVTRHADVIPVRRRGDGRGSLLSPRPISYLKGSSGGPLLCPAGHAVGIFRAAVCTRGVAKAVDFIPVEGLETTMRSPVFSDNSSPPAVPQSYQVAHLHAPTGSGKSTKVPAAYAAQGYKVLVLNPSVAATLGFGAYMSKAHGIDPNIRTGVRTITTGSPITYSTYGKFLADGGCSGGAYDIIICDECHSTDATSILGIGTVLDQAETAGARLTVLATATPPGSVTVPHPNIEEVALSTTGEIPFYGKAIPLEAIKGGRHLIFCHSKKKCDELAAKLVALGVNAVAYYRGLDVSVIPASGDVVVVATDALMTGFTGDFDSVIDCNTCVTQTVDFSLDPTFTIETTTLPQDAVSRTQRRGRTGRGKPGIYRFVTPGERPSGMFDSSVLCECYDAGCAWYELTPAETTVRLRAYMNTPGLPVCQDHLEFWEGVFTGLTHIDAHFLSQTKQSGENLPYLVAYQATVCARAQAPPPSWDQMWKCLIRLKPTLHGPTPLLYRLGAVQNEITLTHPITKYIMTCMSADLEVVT

[3] = target: T1, Hepatitis C virus serine protease, NS3/NS4A; assay: Inhibition of HCV NS4A-NS3 protease; type: protein-complex assay, Hepacivirus hominis
Hepatitis C virus [4] = assay: Antiviral activity against Hepatitis C virus; type: functional, organism-based, Hepacivirus hominis
Hepatitis C virus [5] = assay: Antiviral activity against HCV GT1a-genotype assessed as inhibition of viral replication; type: functional, organism-based, Hepacivirus hominis
Hepatitis C virus [6] = assay: Antiviral activity against HCV GT1b-genotype assessed as viral growth inhibition measured after 24 hrs; type: functional, organism-based, Hepacivirus hominis; details: Hepatitis C virus, GT1b-genotype, 24 h
[7] = Solubility in water at pH 7; type: physicochemical
Hepatitis C virus [8] = assay: Antiviral activity against HCV genotype 1b; type: functional, organism-based, Hepacivirus hominis
Hepatitis C virus [9] = assay: Antiviral activity against HCV genotype 1a; type: functional, organism-based, Hepacivirus hominis

SMILES | EC50 (Hepatitis C virus [5]) [nM] | EC50 (Hepatitis C virus [6]) [nM] | further results
COc1ccc2c(O[C@@H]3C[C@H]4C(=O)N[C@]5(C(=O)O)C[C@H]5/C=C\CCCCC[C@H](NC(=O)OC(C)(C)C)C(=O)N4C3)cc(-c3ccccc3)nc2c1 |  |  | F [1]: 42%; IC50 [2]: 11 nM; IC50 [3]: 3 nM; EC50 (Hepatitis C virus [4]): 1.2 nM
CN(C)S(=O)(=O)NC(=O)c1ccc2c(C3CCCCC3)c3n(c2c1)C[C@@]1(C(=O)N2CCOCC2)C[C@H]1c1ccccc1-3 | 41 | 51 | 
O=C(O)c1ccc2c(C3CCCCC3)c3n(c2c1)CC(C(=O)N1CCOCC1)=Cc1ccccc1-3 | 404 | 359 | 
CN(C)S(=O)(=O)NC(=O)c1ccc2c(C3CCCCC3)c3n(c2c1)CC(C(=O)N1CCOCC1)=Cc1ccccc1-3 | 119 | 148 | solubility [7]: < 1 µg/mL
COc1ccc2c(c1)C=C(C(=O)N1CCOCC1)Cn1c-2c(C2CCCCC2)c2ccc(C(=O)NS(=O)(=O)N(C)C)cc21 | 61 | 62 | 
CN(C)S(=O)(=O)NC(=O)c1ccc2c(C3CCCCC3)c3n(c2c1)C[C@]1(C(=O)N2CCOCC2)C[C@@H]1c1ccccc1-3 | 472 | 336 | 
CN(C)[C@@H](C(=O)N1CCC[C@H]1c1ncc(-c2ccc(-c3ccc(-c4cnc([C@@H]5CCCN5C(=O)[C@@H](c5ccccc5)N(C)C)[nH]4)cc3)cc2)[nH]1)c1ccccc1 |  |  | EC50 (Hepatitis C virus [8]): 0.042 nM; EC50 (Hepatitis C virus [9]): 0.037 nM
